Measurements reported in US4695580A, “Phenylserine derivatives and processes for preparing the same” (Sumitomo Pharmaceuticals Company, Ltd., priority 1983, dated 1987).
Structures can show the parent of a compound that is named as a salt.

Experiments:
SRS-A = assay: Anti-SRS-A activity by Magnus method, isolated guinea pig ileum; type: cell-based; conditions: Cavia porcellus, read-out: Inhibition (anti-SRS-A activity, inhibition rate); for inhibition at 1 µM: drug at 10^-6 M (values marked *); for inhibition at 1 µg/mL: 5 min, drug at 10^-6 g/ml (values without *)
Method: Anti-SRS-A activity of the drugs (the compounds of the present invention) was assayed by using isolated ileum of guinea pig (weighing 300-400 g, male).
SRS-A sample was prepared as follows.
Male albino guinea-pigs were administered by intraperitoneal and subcutaneous injection of 50 mg ovalbumin emulsified with a half amount of Freund's complete adjuvant every other day (total three times). 4 Weeks after the administration lungs were isolated from guinea-pigs and chopped into small pieces. The tissue was placed in Tyrode solution containing indomethacin (1μg/ml) and incubated at 37° C. for 15 min. The incubated solution was then centrifuged and the supernatant fluid was used for the SRS-A sample.
The anti-SRS-A activity was assayed by Magnus method, i.e. a modified method by Eda et al. [cf. Bulletin of Pharmacology in Japan, 66, 194-213 (1970)] using isolated guinea pig ileum. That is, an isolated ileum of guinea pig was hung within an organ bath which was filled with a Tyrode solution containing mepyramine (0.4 μg/ml) and atropine (0.35,/μg/ml) at 37° C. under aeration. The SRS-A sample was given until reproducible contractions were obtained. A solution of the drug (the compounds of the present inventions was added thereto in the final concentration of 10^-6 g/ml or 10^-6 M. After 5 minutes, the SRS-A sample was again acted, and the change of contractile response was measured. Based on the change of contractile response, the anti-SRS-A activity (inhibition rate) was calculated by the following equation: [formula] wherein
a^1 : Contractile response before administration of a drug.
a^2 : Contractile response after administration of a drug.

5-lipoxygenase = target: T1, 5-lipoxygenase (Cavia porcellus, UniProt A0A286X958); assay: 5-Lipoxygenase inhibitory activity (inhibition of 5-HETE production) in guinea pig abdominal leucocytes; type: cell-based; conditions: 10 μM compound, A 23187, 14C-arachidonic acid, read-out: Inhibition (5-HETE production, inhibition rate)
T1 construct: leucocytes isolated from abdominal cavity of guinea pig; endogenous in cells; host or cells: leucocytes isolated from the abdominal cavity of guinea pig (intact cells)
T1 sequence (A0A286X958 1-674): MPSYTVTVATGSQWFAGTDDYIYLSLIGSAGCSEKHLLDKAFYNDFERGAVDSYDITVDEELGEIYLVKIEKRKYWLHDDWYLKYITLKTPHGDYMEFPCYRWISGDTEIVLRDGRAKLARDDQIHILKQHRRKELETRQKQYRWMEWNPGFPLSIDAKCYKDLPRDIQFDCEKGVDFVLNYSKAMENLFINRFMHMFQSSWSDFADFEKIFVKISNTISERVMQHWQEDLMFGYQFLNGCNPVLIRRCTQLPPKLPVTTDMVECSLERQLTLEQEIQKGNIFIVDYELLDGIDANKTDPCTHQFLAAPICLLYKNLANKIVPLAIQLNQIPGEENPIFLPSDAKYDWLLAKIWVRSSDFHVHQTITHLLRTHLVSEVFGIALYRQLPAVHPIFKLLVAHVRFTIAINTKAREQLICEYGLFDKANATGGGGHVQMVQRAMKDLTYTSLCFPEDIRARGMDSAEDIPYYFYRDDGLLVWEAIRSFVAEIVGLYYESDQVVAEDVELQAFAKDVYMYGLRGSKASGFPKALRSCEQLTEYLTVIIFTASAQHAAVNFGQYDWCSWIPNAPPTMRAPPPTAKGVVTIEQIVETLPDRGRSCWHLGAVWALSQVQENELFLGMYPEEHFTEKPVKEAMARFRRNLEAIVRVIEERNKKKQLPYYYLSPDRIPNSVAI
Method: The inhibitory activity was assayed in the same manner as described by J. Harvey et al. That is, leucocytes isolated from abdominal cavity of guinea pig were suspended in Krebs Ringer buffer (KRB, pH 7.4) in a concentration of 2.2×10^7 […]. The leucocytes suspension (935 μl) was preincubated with shaking at 37° C. for 10 minutes, and thereto was added a solution (10 μl) of test drugs (the compounds of the present invention) in dimethylsulfoxide (DMSO) (the final concentration of the compound being 10 μM in the solution). The mixture was incubated for 10 minutes, and then, ^14 C-arachidonic acid (0.1 μCi, 50 μl) (in 5% ethanol/KRB) and A 23187 (J. Pharmacol. Methods, 9, 147-155(1983), 5 μg in 5 μl DMSO) were added thereto, and the mixture was further incubated for 10 minutes. Ice-cooled 0.2M aqueous citric acid solution (100 μl) was added thereto in order to stop the reaction, and then, water (4 ml) was further added thereto. The mixture was twice extracted with ethyl acetate (each 2.5 ml), and the organic layer was distilled to dryness under nitrogen. The resulting residue was dissolved in ethyl acetate and the solution was applied onto a TLC plate. After developing with toluene-dioxane-acetic acid (65:34:1.5 V/V), 5-HETE (5-hydroxyeicosatetraenoic acid) produced by 5-lipoxygenase was measured with TLC scanner. The inhibition rate (%) was calculated by comparing the amount of 5-HETE between the addition and non-addition of a drug by the following equation: [formula] wherein
b^1 : Amount of produced 5-HETE in case of non-addition of a drug.
b^2 Amount of produced 5-HETE in case of addition of a drug.

Row | Compound | inhibition at 1 µM (SRS-A) | inhibition at 1 µg/mL (SRS-A) | inhibition at 10 µM (5-lipoxygenase)
1 | O=C([C@@H](NCCCc1ccccc1)[C@H](O)c1ccc(O)c(O)c1)N1CCCC1 (relative stereo) [Compd. No. 13] | 100% | – | –
2 | CC(CCc1ccccc1)N[C@H](C(=O)N1CCCC1)[C@H](O)c1ccc(O)c(O)c1 (relative stereo) [Compd. No. 19, DL-Threo-3-(3,4-dihydroxyphenyl)-N-(1-methyl-3phenylpropyl)serine pyrrolidine amide] | – | 100% | > 70%
3 | COC(=O)[C@@H](NC(C)CCc1ccccc1)[C@H](O)c1ccc(O)c(O)c1 (relative stereo) [Compd. No. 120, DL-threo-3-(3,4-dihydroxyphenyl)-N-(1-methyl-3-phenylpropyl)serine methyl ester] | – | 97% | –
4 | COC(=O)[C@@H](NC(C)CCc1ccc(OC)cc1)[C@H](O)c1ccc(O)c(O)c1 (relative stereo) [Compd. No. 122, DL-threo-3-(3,4-dihydroxyphenyl)-N-[1-methyl-3-(p-methoxyphenyl)propyl]serine methyl ester] | – | 94% | > 70%
5 | CCOC(=O)[C@@H](NC(C)CCc1ccccc1)[C@H](O)c1ccc(O)c(O)c1 (relative stereo) [Compd. No. 132, DL-Threo-3-(3,4-dihydroxyphenyl)-N-(1-methyl-3-phenylpropyl)serine ethyl ester] | – | 82% | > 70%
6 | CC(CCc1ccccc1)N[C@H](C(=O)OC(C)C)[C@H](O)c1ccc(O)c(O)c1 (relative stereo) [Compd. No. 158, DL-threo-3-(3,4-dihydroxyphenyl)-N-(1-methyl-3-phenylpropyl)serine isopropyl ester] | – | 96% | –
7 | CC(C)COC(=O)[C@@H](NC(C)CCc1ccccc1)[C@H](O)c1ccc(O)c(O)c1 (relative stereo) [Compd. No. 170, DL-threo-3-(3,4-dihydroxyphenyl)-N-(1-methyl-3-phenylpropyl)serine isobutyl ester] | – | 85% | –
8 | CC(CCc1ccccc1)N[C@H](C(=O)NN)[C@H](O)c1ccc(O)c(O)c1 (relative stereo) [Compd. No. 178, DL-threo-3-(3,4-dihydroxyphenyl)-N-(1-methyl-3-phenylpropyl)serine hydrazide] | – | 81% | –
9 | CC(CCc1ccccc1)N[C@H](CO)[C@H](O)c1ccc(O)c(O)c1 (relative stereo) [Compd. No. 183, DL-threo-1-(3,4-dihydroxyphenyl)-2-(1-methyl-3-phenylpropyl)amino-1,3-propanediol 1/2 oxalate] | – | 97% | > 70%
10 | CC(CCc1ccccc1)N[C@H](COC(N)=O)[C@H](O)c1ccc(O)c(O)c1 (relative stereo) [Compd. No. 189, DL-threo-1-(3,4-dihydroxyphenyl)-2-(1-methyl-3-phenylpropyl)-amino-3-carbamoyloxypropanol] | – | 98% | –
11 | CNC(=O)[C@@H](NC(C)CCc1ccccc1)[C@H](O)c1ccc(O)c(O)c1 (relative stereo) [compound 48] | – | 100% | –
12 | CC(CCc1ccccc1)N[C@H](C(=O)N1CCc2ccccc21)[C@H](O)c1ccc(O)c(O)c1 (relative stereo) [compound 77] | 96% | – | > 70%
13 | COC(=O)[C@@H](NC(C)CCC(C)C)[C@H](O)c1ccc(O)c(O)c1 (relative stereo) [compound 142] | – | 91% | > 70%
14 | COC(=O)[C@@H](NC(C)CCc1ccc(O)cc1)[C@H](O)c1ccc(O)c(O)c1 (relative stereo) [compound 143] | – | 83% | –
15 | COC(=O)[C@@H](NC(C)CCCCC(=O)Nc1ccc(C(F)(F)F)cc1)[C@H](O)c1ccc(O)c(O)c1 (relative stereo) [compound 146] | – | 94% | –
16 | CCCCc1ccc(NC(=O)CCCCC(C)N[C@H](C(=O)OC)[C@H](O)c2ccc(O)c(O)c2)cc1 (relative stereo) [compound 147] | – | 100% | –
17 | CC(CCc1ccccc1)N[C@H](C(N)=O)[C@H](O)c1ccc(O)c(O)c1 (relative stereo) [compound 177, DL-threo-3-(3,4-dihydroxphenyl)-N-(1-methyl-3-phenylpropyl)serine amide] | – | 86% | –
18 | CC(CCc1ccccc1)N[C@H](C(=O)N1CCCC1)[C@H](O)c1ccc(O)c(O)c1 (stereo partly drawn) [Compd. No. 10, L-Threo-3-(3,4-dihydroxyphenyl)-N-(1-methyl-3-phenylpropyl)serine pyrrolidine amide] | 100% | – | –
19 | COC(=O)[C@H](NC(C)CCc1ccccc1)[C@@H](O)c1ccc(O)c(O)c1 (stereo partly drawn) [Compd. No. 156, D-threo-3-(3,4-dihydroxyphenyl)-N-(1-methyl-3-phenylpropyl)serine methyl ester] | – | 90% | –
20 | COc1cc(C)c(CCC(C)N[C@H](C(=O)N2CCCC2)[C@H](O)c2ccc(O)c(O)c2)c(C)c1C (some centres unmarked) [compound 28] | 94% | – | –
21 | CC(CCc1ccc(F)cc1)N[C@H](C(=O)N1CCCC1)[C@H](O)c1ccc(O)c(O)c1 (some centres unmarked) [compound 29] | 97% | – | –
22 | CC(CCc1cccc2ccccc12)N[C@H](C(=O)N1CCCC1)[C@H](O)c1ccc(O)c(O)c1 (some centres unmarked) [compound 34] | 92% | – | –
23 | CC(CCc1ccco1)N[C@H](C(=O)N1CCCC1)[C@H](O)c1ccc(O)c(O)c1 (some centres unmarked) [compound 35] | 87% | – | –
24 | CCCCc1ccc(NC(=O)CCCCC(C)N[C@H](C(=O)N2CCCC2)[C@H](O)c2ccc(O)c(O)c2)cc1 (some centres unmarked) [compound 41] | 81% | – | –
25 | CC(CCCCC(=O)Nc1ccc(C(F)(F)F)cc1)N[C@H](C(=O)N1CCCC1)[C@H](O)c1ccc(O)c(O)c1 (some centres unmarked) [compound 42] | 97% | – | –
26 | COC(=O)[C@@H]1CCCN1C(=O)[C@@H](NC(C)CCc1ccccc1)[C@H](O)c1ccc(O)c(O)c1 (some centres unmarked) [compound 65] | 85% | – | –
